Data: patent US7767824B2, “Heterocyclic compounds and cerebral function improvers containing the same as the active ingredient” (Zenyaku Kogyo Kabushiki Kaisha, priority 2001, dated 2010)
Marks after values point to notes of the source that are not given here.

Assays:
[1] = tested on: scopolamine-induced amnesia of rats; assay: Effects on scopolamine-induced amnesia, passive avoidance task (oral administration); format: in vivo, rat; conditions: 60 min before trial, scopolamine hydrobromide 2 mg/kg i.p., latency 24 h after shock, male Sprague Dawley rats; for inhibition in vivo at 0.01 mg/kg / inhibition in vivo at 1 mg/kg: Rattus norvegicus, po, read-out: Inhibitory rate (%)
Text: Male rats of the Strague Dawley strain at 8 weeks of age (260±2 g body weight) were used for evaluation through passive avoidance task. The apparatus of passive avoidance task comprises illuminated and dark chambers which are separated from each other by a wall with a door. Floors are constituted by grids made of stainless steel; only the grid in the dark chamber is furnished with wiring for electrification.
Effected on the first and second days of testing was preparative training; each rat was placed in the illuminated chamber and left for 3 minutes to habituate to the apparatus. On the third day of testing, the rats were individually placed in the illuminated chamber and after entering the dark chamber, the door was closed and the floor grid was electrified to deliver electric shock (100 V, 0.4 mA, a period of 0.8 sec). In order to induce amnesia, scopolamine hydrobromide (2 mg/kg) was intraperitoneally injected 20 minutes before the electric shock was delivered. Retention in memory on the electric shock was tested 24 hours later; more specifically, retention in passive avoidance was measured in terms of a time interval (latency) from placement of each rat in the illuminated chamber to its entry into the dark chamber. The latency over 300 seconds was recorded as 300 seconds. Respective test compounds were suspended in an aqueous solution of 1% carboxymethyl cellulose and orally administered at a dose of 0.01 or 1 mg/kg 60 minutes before the trial.
Antiamnesic effects of the test compounds were evaluated by inhibitory rate (%) which is calculated by the following formula:
[formula] wherein T stands for latency and SC, administration of scopolamine hydrobromide. Experimental results are shown in the following table in which, as to each of the test compounds, only the dose showing higher inhibitory rate was indicated.

Compound | inhibition in vivo at 0.01 mg/kg ([1]; dose 0.01 mg/kg p.o.) [%] | melting point | other results
COc1cc2c(cc1OC)C(=O)C(CC1CCN(Cc3ccccc3)CC1)C2 (racemic) [compound C, (R,S)-1-benzyl-4-(5,6-dimethoxy-1-indanon-2-yl)-methylpiperidine, reference compound] | 12.5 | – | inhibition in vivo at 1 mg/kg ([1]; dose 1 mg/kg p.o.): 24.7%
O=C1N=C2SC=CN2C1(Cc1ccc(F)cc1)Cc1ccc(F)cc1 [compound 1, 5,5-bis(4-fluorobenzyl)imidazo[2,1-b]thiazol-6(5H)-one] | – | – | inhibition in vivo at 1 mg/kg ([1]; dose 1 mg/kg p.o.): 56.1%
O=C1N=C2SC=CN2C1(Cc1ccccc1)Cc1ccccc1 [compound 2, 5,5-dibenzylimidazo[2,1-b]thiazol-6(5H)-one] | 86.9 | > 300 °C | –
O=C1N=C2N=CC=CN2C1(Cc1ccccc1)Cc1ccccc1 [compound 3, 3,3-dibenzylimidazo[1,2-a]pyrimidin-2(3H)-one] | 60.3 | > 300 °C | –
Cc1ccc(CC2(Cc3ccc(C)cc3)C(=O)N=C3SC=CN32)cc1 [compound 4, 5,5-bis(4-methylbenzyl)imidazo[2,1-b]thiazol-6(5H)-one] | 49.8 | > 300 °C | –
N#Cc1ccc(CC2(Cc3ccc(C#N)cc3)C(=O)N=C3SC=CN32)cc1 [compound 5, 5,5-bis(4-cyanobenzyl)imidazo[2,1-b]thiazol-6(5H)-one] | 49.6 | 264 to 267 °C | –
CC1=CN2C(=NC(=O)C2(Cc2ccccc2)Cc2ccccc2)S1 [compound 6, 5,5-dibenzyl-2-methylimidazo[2,1-b]thiazol-6(5H)-one] | 66.6 | > 300 °C | –
O=C1N=C2SC=CN2C1(Cc1cccs1)Cc1cccs1 [compound 7, 5,5-bis(2-thienylmethyl)imidazo[2,1-b]thiazol-6(5H)-one] | – | 286 °C (dec.) | –
O=C1N=C2N=CC=CN2C1(Cc1cccs1)Cc1cccs1 [compound 8, 3,3-bis(2-thienylmethyl)imidazo[1,2-a]pyrimidin-2(3H)-one] | 58.9 | 192 °C (dec.) | –
O=C1N=C2SCCN2C1(Cc1ccccc1)Cc1ccccc1 [compound 9, 5,5-dibenzyl-2,3-dihydroimidazo[2,1-b]thiazol-6(5H)-one] | 86.6 | 233 to 236 °C | –
Oc1nc2ccccn2c1Cc1ccc2ccccc2c1 [compound 10, 2-hydroxy-3-(2-naphtylmethyl)imidazo[1,2-a]pyridin] | – | – | Inhibitory rate (%) ([1]; dose 0.01 mg/kg p.o.): 40.8* %
O=C1N=C2C=CC=CN2C12Cc1cc3ccccc3cc1C2 [compound 11, spiro[imidazo[1,2-a]pyridin-2(3H)-one-3,2′-benzo[f]-indan]] | – | – | Inhibitory rate (%) ([1]; dose 0.01 mg/kg p.o.): 80.4** %
O=C1N=C2CCCCN2C1(C1CCCCC1)C1CCCCC1 [compound 12, 3,3-dicyclohexyl-5,6,7,8-tetrahydroimidazo[1,2-a]-pyridin-2(3H)-one] | 53.5 | 218 to 220 °C | –
CCCCC1(CCCC)C(=O)N=C2CCCCN21 [compound 13, 3,3-dibutyl-5,6,7,8-tetrahydroimidazo[1,2-a]pyridin-2 (3H)-one] | – | 35 to 40 °C | inhibition in vivo at 1 mg/kg ([1]; dose 1 mg/kg p.o.): 49.6%
O=C1N=C2C=CC=CN2C1Cc1ccccc1 (centres unmarked) [compound 14, 3-benzylimidazo[1,2-a]pyridin-2(3H)-one] | 53.6 | 182 °C (dec.) | –
CCCC1(CCC)C(=O)N=C2CCCCN21 [compound 15, 3,3-dipropyl-5,6,7,8-tetrahydroimidazo[1,2-a]pyridin-2(3H)-one] | – | – | inhibition in vivo at 1 mg/kg ([1]; dose 1 mg/kg p.o.): 61.5%
CN1C=NC(Cc2ccccc2)(Cc2ccccc2)C1=O [compound 16, 4,4-dibenzyl-1-methyl-5-oxo-4,5-dihydroimidazol] | 73.3 | – | –
CC=CCC1(CC=CC)C(=O)N=C2N=CC=CN21 (centres unmarked) [compound 17, 3,3-di(2-butenyl)imidazo[1,2-a]pyrimidin-2(3H)-one] | 54.4 | 149.5 °C (dec.) | –

Compound | inhibition in vivo at 0.01 mg/kg ([1]; dose 0.01 mg/kg p.o.) [%] | melting point | other results
O=C1N=C2C=CC=CN2C12Cc1cccc(F)c1C2 (centres unmarked) [compound 18, spiro[imidazo[1,2-a]pyridin-2(3H)-one-3,2′-(4′-fluoroindan)]] | – | – | Inhibitory rate (%) ([1]; dose 0.01 mg/kg p.o.): 90.3** %
COc1ccc2c(c1)CC1(C2)C(=O)N=C2C=CC=CN21 (centres unmarked) [compound 19, spiro[imidazo[1,2-a]pyridin-2(3H)-one-3,2′-(5′-methoxyindan)]] | – | – | Inhibitory rate (%) ([1]; dose 1 mg/kg p.o.): 83.4** %
O=C1N=C2C=CC=CN2C12Cc1ccc(I)cc1C2 (centres unmarked) [compound 20, spiro[imidazo[1,2-a]pyridin-2(3H)-one-3,2′-(5′-iodoindan)]] | – | – | Inhibitory rate (%) ([1]; dose 1 mg/kg p.o.): 72.4** %
N#Cc1cccc2c1CC1(C2)C(=O)N=C2C=CC=CN21 (centres unmarked) [compound 21, spiro[imidazo[1,2-a]pyridin-2(3H)-one-3,2′-(4′-cyanoindan)]] | – | – | Inhibitory rate (%) ([1]; dose 1 mg/kg p.o.): 52.4* %
O=C1N=C2c3ccccc3C=CN2C12Cc1ccccc1C2 [compound 22, spiro[imidazo[2,1-a]isoquinolin-2(3H)-one-3,2′-indan]] | – | – | Inhibitory rate (%) ([1]; dose 0.01 mg/kg p.o.): 76.5** %
O=C1N=C2C=CC=CN2C12Cc1cc3nsnc3cc1C2 [compound 23, spiro[imidazo[1,2-a]pyridin-2(3H)-one-3,2′-((1,2,5-thiadiazo)[4,5-c]indan)]] | – | – | Inhibitory rate (%) ([1]; dose 0.01 mg/kg p.o.): 88.2** %
O=C1N=C2N=CC=CN2C12Cc1ccccc1C2 [compound 25, spiro[imidazo[1,2-a]pyrimidin-2(3H)-one-3,2′-indan]] | – | – | Inhibitory rate (%) ([1]; dose 1 mg/kg p.o.): 78.3* %
O=C1N=C2C=CC=CN2C12Cc1ccc(C(F)(F)F)cc1C2 (centres unmarked) [compound 26, spiro[imidazo[1,2-a]pyridin-2(3H)-one-3,2′-(5′-trifluoromethylindan)]] | – | – | Inhibitory rate (%) ([1]; dose 1 mg/kg p.o.): 74.3** %
O=C1N=C2C=CC=CN2C12Cc1ccc3ccccc3c1C2 (centres unmarked) [compound 27, spiro[imidazo[1,2-a]pyridin-2(3H)-one-3,2′-benzo[e]-indan]] | – | – | Inhibitory rate (%) ([1]; dose 1 mg/kg p.o.): 64.9** %
O=C1N=C2c3ccccc3C=CN2C12CC=CC2 [compound 28, spiro[imidazo[2,1-a]isoquinolin-2 (3H)-one-3,1′-(3′-cyclopentene)]] | – | – | Inhibitory rate (%) ([1]; dose 0.01 mg/kg p.o.): 88.0** %
O=C1N=C2C(OCc3ccccc3)=CC=CN2C12CC=CC2 [compound 29, spiro[8-benzyloxyimidazo[1,2-a]pyridin-2(3H)-one-3,1′-(3′-cyclopentene)]] | – | – | Inhibitory rate (%) ([1]; dose 1 mg/kg p.o.): 87.7** %
O=C1N=C2C3=C(C=CN2C12CCCC2)CCCC3 [compound 30, spiro[7,8,9,10-tetrahydroimidazo[2,1-a]isoquinolin-2(3H)-one-3,1′-cyclopentane]] | – | – | Inhibitory rate (%) ([1]; dose 1 mg/kg p.o.): 89.5** %
O=C1N=C2c3ccccc3C=CN2C12CCCC2 [compound 31, spiro[imidazo[2,1-a]isoquinolin-2(3H)-one-3,1′-cyclopentane]] | – | – | Inhibitory rate (%) ([1]; dose 0.01 mg/kg p.o.): 56.7* %
O=C1N=C2CCCCN2C12Cc1cc3ccccc3cc1C2 [compound 32, spiro[5,6,7,8-tetrahydroimidazo[1,2-a]pyridin-2(3H)-one-3,2′-benzo[f]indan]] | – | – | Inhibitory rate (%) ([1]; dose 0.01 mg/kg p.o.): 61.4* %
O=C1N=C2CCCCN2C12Cc1ccccc1C2 [compound 33, spiro[5,6,7,8-tetrahydroimidazo[1,2-a]pyridin-2(3H)-one-3,2′-indan]] | – | – | Inhibitory rate (%) ([1]; dose 0.01 mg/kg p.o.): 66.1** %
O=C1N(c2ccccc2)c2ccccc2C1(Cc1ccncc1)Cc1ccncc1 [compound A, 3,3-bis(4-pyridylmethyl)-1-phenylindolin-2-one, reference compound] | 8.8 | – | inhibition in vivo at 1 mg/kg ([1]; dose 1 mg/kg p.o.): 20.9%
Nc1c2c(nc3ccccc13)CCCC2 [compound B, 9-amino-1,2,3,4-tetrahydro-acridine, reference compound] | 24.1 | – | inhibition in vivo at 1 mg/kg ([1]; dose 1 mg/kg p.o.): 54.9%
spiro[imidazo[2,1-a]isoquinolin-2(3H)-one-3,21-(1,2,5-thiadiazo)[4,5-c]indan)] [compound 24] | – | – | Inhibitory rate (%) ([1]; dose 0.01 mg/kg p.o.): 97.1** %
